{"source": "patent US20220339122A1", "about": "“METHODS FOR THE TREATMENT OF DISEASES ASSOCIATED WITH DYSREGULATED ACTIVATION AND RECRUITMENT OF NEUTROPHILS” (Chang Gung University, priority 2021, published 2022)", "key": {"Src (Y416)": {"tested_on": "Src (Y416)", "assay": "Immunoblotting of neutrophil lysates, Src phosphorylation", "assay_type": "cell-based, human", "details": "0.1 μM fMLF-stimulated neutrophils", "description": "(§1) Neutrophils incubated with bletinib or DMSO at 37° C. for 5 min were stimulated with 0.1 μM fMLF for 30 s. The proteins were separated from neutrophil lysates through electrophoresis (12% sodium dodecyl sulphate-polyacrylamide gel electrophoresis) and then transferred to nitrocellulose membranes. The target proteins were identified through immunoblotting with specific antibodies against p38, p-p38, Akt, p-Akt S473, ERK, p-ERK, INK, p-JNK, Src, p-SFKs Y416, p-Src Y416, Lyn, p-Lyn (Y396), Fgr, p-Fgr (Y412), Hck, p-Hck (Y410), Btk, p-Btk Y223, Vav, and p-Vav (Y174) as well as with HRP-conjugated secondary anti-rabbit antibody (Cell Signaling Technology). The signal intensity was detected and quantified using the UVP BioSpectrum Imaging System (Analytik Jena, USA)."}, "CD18 (integrin β2)": {"tested_on": "CD18 (integrin β2)", "assay": "Surface CD18 expression, flow cytometry", "assay_type": "cell-based, human", "details": "1-10 μM bletinib; 0.1 μM fMLF/CB", "description": "(§2) Neutrophils (5×10^5 cells/mL) were incubated with bletinib or DMSO for 5 min and then activated through incubation with 0.1 μM fMLF/1 μg/mL CB for 5 min. After centrifugation at 200×g for 8 min at 4° C., the cells were resuspended in 5% bovine serum albumin with FITC-conjugated antibodies against CD18 or CD11b on ice in the dark for 15 min. The fluorescent intensity was then analysed through fluorescence-activated cell sorting."}, "Fgr": {"target": "Fgr (Homo sapiens, UniProt P09769)", "sequence (P09769 whole entry)": "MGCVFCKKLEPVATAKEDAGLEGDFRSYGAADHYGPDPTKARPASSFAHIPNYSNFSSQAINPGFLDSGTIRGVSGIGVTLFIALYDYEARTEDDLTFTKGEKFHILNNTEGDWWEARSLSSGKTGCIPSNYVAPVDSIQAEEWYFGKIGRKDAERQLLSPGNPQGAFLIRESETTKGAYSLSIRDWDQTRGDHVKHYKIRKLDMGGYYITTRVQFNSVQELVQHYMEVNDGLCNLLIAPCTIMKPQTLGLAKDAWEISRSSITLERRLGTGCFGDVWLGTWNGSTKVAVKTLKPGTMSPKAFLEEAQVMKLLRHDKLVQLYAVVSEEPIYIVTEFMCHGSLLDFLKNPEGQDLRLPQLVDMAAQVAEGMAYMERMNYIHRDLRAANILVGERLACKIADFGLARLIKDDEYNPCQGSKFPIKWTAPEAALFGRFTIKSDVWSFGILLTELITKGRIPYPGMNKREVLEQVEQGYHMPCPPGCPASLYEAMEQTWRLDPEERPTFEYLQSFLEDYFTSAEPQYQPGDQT", "assay": "Cell-free ADP-Glo kinase assay, Fgr", "assay_type": "biochemical", "details": "1-10 μM bletinib or 0.1-3 μM PP2; 125 μM ATP; concentration-dependent", "description": "The kinase activity of SFKs was assessed using an ADP-Glo kinase assay kit (Promega, Fitchburg, USA) according to manufacturer instructions. […] The ADP-Glo reagent was used to end the kinase reaction and remove the remnant ATP; next, the kinase, which converted ADP to ATP, detection reagent was added and incubated for 30 min. Luciferin/luciferase luminescence was determined on an Infinite 200 Pro (Tecan, Switzerland)."}, "human neutrophils [1]": {"tested_on": "human neutrophils", "assay": "Total ROS production, luminol-amplified chemiluminescence", "assay_type": "cell-based", "details": "0.1-3 μM bletinib; 0.1 μM fMLF; dose-dependent", "description": "Human neutrophils (2×10^6 cells/mL) were preincubated with 6 U mL^−1 horseradish peroxidase (HRP) and 37.5 μM luminol in a 96-well plate at 37° C. for 5 min. Cells were incubated with DMSO or bletinib for 5 min, followed by 0.1 μM fMLF stimulation. Chemiluminescence was then detected and analysed in real time on a 96-well chemiluminometer (Tecan Infinite F200 Pro; Mannedorf, Switzerland)."}, "human neutrophils [2]": {"tested_on": "human neutrophils", "assay": "Neutrophil elastase (NE) release (degranulation)", "assay_type": "cell-based", "description": "Human neutrophils (6×10^5 cells/mL) were incubated with DMSO or bletinib after treatment with 1 mM CaCl2 and 100 μM NE substrate (Methoxysuccinyl-Ala-Ala-Pro-Val-p-nitroanilide) at 37° C. for 5 min. Cells were stimulated with fMLF/0.5 μg mL^−1 CB, leukotriene B4 (LTB4)/2 μg mL^−1 CB, NaF/2 μg mL^−1 CB, or MMK-1/0.5 μg mL-1 CB for 10 min before determination of NE release by measuring the change of absorbance at 405 nm in a spectrophotometer."}, "BALB/c mice": {"tested_on": "BALB/c mice", "assay": "LPS-induced ALI model in mice", "assay_type": "in vivo", "details": "25 mg/kg intraperitoneal", "description": "A total of 24 male BALB/c mice were randomly divided into four groups (6 mice/group): vehicle alone, bletinib alone, LPS control, and bletinib treatment (bletinib+LPS). The mice were starved overnight and then intraperitoneally injected with 50 μL of bletinib (25 mg/kg) or 50 μL of vehicle (10% DMSO). ALI was induced through intratracheal spraying of 50 μL of LPS (from Escherichia coli O111:B4; 2 mg/kg) or 50 μL of 0.9% saline (in vehicle and bletinib alone group) under general anaesthesia with xylazine (6 mg/kg) and Zoletil 50 (30 mg/kg). Five hours later, mouse lungs were harvested after sacrifice and were frozen for myeloperoxidase (MPO) activity assay; they were also fixed with 10% formalin for histological sectioning and immunofluorescence staining.\nThe harvested lung tissues were washed with phosphate-buffered saline (PBS) and fixed with 10% formalin for 24 h. The samples were subsequently dehydrated, embedded with paraffin, sliced into 3-μm-thick sections with a microtome, and placed on glass slides. These sections were stained using haematoxylin and eosin (H&E) and corresponding antibodies. Then, images were acquired through light microscopy.\nFor immunofluorescence staining, tissue sections were incubated with antibodies against H3 (citH3; citrulline R2+R8+R17) and Ly6G at dilutions of 1:800 and 1:200, respectively. Anti-IgG secondary antibodies labelled with a fluorescent dye (Alexa Fluor 488 for citH3 or Alexa Fluor 568 for Ly6G) were used at dilutions of 1:1000 and 1:500, respectively. Immunofluorescence images were acquired through confocal microscopy (LSM 510 Meta, Zeiss).\nThe mouse lung tissues were suspended in a 0.5% hexadecyltrimethylammonium bromide buffer (pH 6.0) and then homogenised through sonication. To evaluate MPO activity, the MPO substrate buffer (containing PBS, 0.0005% hydrogen peroxide, and 0.2 mg/mL 0-dianisidine hydrochloride) was added to the homogenised tissue, and the light absorbance at 460 nm was detected by spectrophotometry, after which, MPO activity was calculated with reference to the standard curve of human MPO activity."}, "human neutrophils [3]": {"tested_on": "human neutrophils", "assay": "NET formation, quantification of extracellular DNA with Sytox green", "assay_type": "cell-based", "details": "10 nM PMA; 1-10 μM bletinib", "description": "Human neutrophils (10^6 cells/mL) resuspended in HBSS with 2.5 μM Sytox green were incubated with DMSO or bletinib for 10 min and stimulated using 10 nM PMA or 10 μg/mL LPS for 3 h. The fluorescence intensity was quantified on a Tecan Infinite 200 reader at 485-535 nm."}, "p-ERK": {"tested_on": "p-ERK", "assay": "Immunoblotting of neutrophil lysates, ERK phosphorylation", "assay_type": "cell-based, human", "details": "10 μM bletinib; 0.1 μM fMLF", "description": "as §1"}, "CD11b (integrin αM)": {"tested_on": "CD11b (integrin αM)", "assay": "Surface CD11b expression, flow cytometry", "assay_type": "cell-based, human", "description": "as §2"}}, "data": [{"smiles": "COc1cc(O)cc(CCc2c(Cc3ccc(O)cc3)ccc(O)c2Cc2ccc(O)cc2)c1", "note": "[bletinib, 3,3′-dihydroxy-2′,6′-bis(p-hydroxybenzyl)-5-methoxybibenzyl]", "values": [{"measurement": "phosphorylation of Src (Y416)", "setting": "Src (Y416)", "result": "significantly inhibited"}, {"measurement": "expression of CD18 in fMLF-stimulated human neutrophils", "setting": "CD18 (integrin β2)", "result": "significantly attenuated"}, {"measurement": "kinase activity of Fgr", "setting": "Fgr", "result": "inhibited"}, {"measurement": "ROS production, luminol-amplified chemiluminescence", "setting": "human neutrophils [1]", "result": "significantly suppressed"}, {"measurement": "IC50", "setting": "human neutrophils [2]; Homo sapiens, Neutrophil, fMLF/CB stimulation, read-out: release of NE in fMLF-stimulated human neutrophils, IC50", "result": "530 ± 70", "unit": "nM"}, {"measurement": "NE release from neutrophils stimulated with LTB4", "setting": "human neutrophils [2]; LTB4/CB, 0.1-10 μM bletinib, concentration-dependent", "result": "downregulated"}, {"measurement": "NE release from neutrophils stimulated with MMK-1", "setting": "human neutrophils [2]; MMK-1/CB, 0.1-10 μM bletinib, concentration-dependent", "result": "downregulated"}, {"measurement": "NE release from neutrophils stimulated with NaF", "setting": "human neutrophils [2]; NaF/CB, 0.1-10 μM bletinib, concentration-dependent", "result": "downregulated"}, {"measurement": "MPO activity in the mouse lung tissues", "setting": "BALB/c mice; 5 h after LPS spraying", "result": "significantly ameliorated"}, {"measurement": "total protein levels in the mouse lung tissues", "setting": "BALB/c mice; 5 h after LPS spraying", "result": "significantly ameliorated"}, {"measurement": "LPS-activated phosphorylation of Vav (p-Vav) in lung sections", "setting": "BALB/c mice; intratracheal LPS for 5 h", "result": "attenuated"}, {"measurement": "LPS-induced NET formation (Ly6G+citH3+ cell accumulation) in lung", "setting": "BALB/c mice; intratracheal LPS for 5 h", "result": "considerably reduced"}, {"measurement": "distortion of the pulmonary architecture (lung histology)", "setting": "BALB/c mice; intratracheal LPS for 5 h", "result": "significantly suppressed"}, {"measurement": "NET formation induced by PMA, fluorescent spectrometry (Sytox green)", "setting": "human neutrophils [3]", "result": "significantly mitigated"}, {"measurement": "phosphorylation of ERK", "setting": "p-ERK", "result": "significantly inhibited"}, {"measurement": "expression of CD11b in fMLF-stimulated human neutrophils", "setting": "CD11b (integrin αM); 1-10 μM bletinib, 0.1 μM fMLF/CB", "result": "significantly attenuated"}, {"measurement": "IL-8-induced CD11b expression", "setting": "CD11b (integrin αM); IL-8, data not shown", "result": "restrained"}]}]}
